{"source": "patent US20240360082A1", "about": "“SUBSTITUTED PYRIDONE COMPOUNDS USEFUL TO TREAT ORTH[…]” (priority 2021, published 2024)", "target": "influenza B virus minigenome (Hubei B) (UniProt P04665)", "sequence (P04665 whole entry)": "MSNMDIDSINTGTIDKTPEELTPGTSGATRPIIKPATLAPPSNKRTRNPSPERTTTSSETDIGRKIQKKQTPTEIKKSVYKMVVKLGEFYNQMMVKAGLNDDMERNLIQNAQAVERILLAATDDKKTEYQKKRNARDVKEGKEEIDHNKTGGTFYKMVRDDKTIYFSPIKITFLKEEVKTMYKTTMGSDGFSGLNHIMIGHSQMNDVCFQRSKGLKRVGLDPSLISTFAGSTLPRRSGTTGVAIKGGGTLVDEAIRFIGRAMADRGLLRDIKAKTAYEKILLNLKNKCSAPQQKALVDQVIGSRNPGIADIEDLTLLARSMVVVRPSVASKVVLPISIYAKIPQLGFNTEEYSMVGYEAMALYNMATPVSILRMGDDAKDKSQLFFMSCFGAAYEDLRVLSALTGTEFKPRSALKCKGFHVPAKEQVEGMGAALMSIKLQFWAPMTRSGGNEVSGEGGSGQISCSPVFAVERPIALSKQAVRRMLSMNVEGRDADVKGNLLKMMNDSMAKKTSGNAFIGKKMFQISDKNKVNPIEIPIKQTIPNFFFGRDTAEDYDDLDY", "format": "cell-based", "conditions": "read-out: RNP_Hubei B IC50", "data": [{"smiles": "C[C@]1(COCCF)COC[C@@H](COc2ccc(-c3cc(C(N)=O)c(=O)[nH]c3C(F)(F)F)cc2)O1", "note": "[Example 436, 5-(4-(((2S,6R)-6-((2-fluoroethoxy)methyl)-6-methyl-1,4-dioxan-2-yl)methoxy)phenyl)-2-oxo-6-(trifluoromethyl)-1,2-dihydropyridine-3-carboxamide]", "values": [{"measurement": "IC50", "result": "5 to 10", "unit": "µM"}]}, {"smiles": "COC[C@]1(C2CC2)COC[C@@H](COc2ccc(-c3cc(C(N)=O)c(=O)[nH]c3C(F)(F)F)cc2)O1", "note": "[Example 438, 5-(4-(((2S,6R)-6-cyclopropyl-6-(methoxymethyl)-1,4-dioxan-2-yl)methoxy)phenyl)-2-oxo-6-(trifluoromethyl)-1,2-dihydropyridine-3-carboxamide]", "values": [{"measurement": "IC50", "result": "5 to 10", "unit": "µM"}]}]}
